Assay results taken from patent US20170051014A1, “PEPTIDE HAVING EFFICACY FOR REMEDYING HYPOPIGMENTATION AND INHIBITING ADIPOGENESIS, AND USE OF SAME” (CAREGEN CO., LTD., priority 2014, published 2017).
Bridge positions count the residues as written; N and C are the ends.

Key:
[1] = cited from earlier work; for side effects / weight loss effect: background statement on marketed anti-obesity drugs
perilipin = experiment: Adipogenesis-related gene expression by RT-PCR: perilipin; type: cell-based; settings: 3T3-L1 cells with differentiation inducing material, incubation for 7 days
Procedure: (§1) Pre-adipocytes (3T3-L1 cell line) were incubated on 6-well plates for 48 hours, and then treated with the present peptide with different concentrations together with a differentiation composition (0.5 mM IBMX, […], […]), followed by incubation for 7 days. After the incubation, PT-PCR was conducted using primers specific to perilipin and PPARγ, which are genes involved in the adipogenesis mechanism. It was investigated whether the mRNA values of perilipin and PPARγ were inhibited.
(§2) Target-specific primer sequences used in PCR for enzymes involved in adipogenesis were as follows: perilipin forward primer sequence, 5′-[…]-3′ and perilipin reverse primer sequence, 5′-[…]-3′ (annealing temperature, 60° C.); PPARγ forward primer sequence, 5′-[…]-3′ and PPARγ reverse primer sequence, 5′-[…]-3′ (annealing temperature, 60° C.)

tyrosinase [2] = experiment: Melanogenic enzyme protein level by western blot: tyrosinase; type: cell-based, mouse; settings: B16F10 cells, 6-hour treatment and 24-hour treatment
Procedure: Melanocytes (B16F10 cell line) were incubated on 6-well culture plates in an incubator for 24 hours, and were treated with the peptide of the present invention with different concentrations. […] The test was conducted using an anti-tyrosinase antibody (Santa Cruz Biotechnology, USA).

PPARγ = experiment: Adipogenesis-related gene expression by RT-PCR: PPARγ; type: cell-based; settings: 3T3-L1 cells with differentiation inducing material, incubation for 7 days
Procedure: as §1, §2

CREB = experiment: Melanogenesis signaling molecules by western blot: CREB phosphorylation; type: cell-based, mouse; settings: B16F10 cells, observed over time (6 to 24 hours)
Procedure: (§3) Melanocytes (B16F10 cell line) were incubated on 6-well culture plates in an incubator for 24 hours, and were treated with the peptide of the present invention with different concentrations. After the cells were incubated for from 6 to 24 hours, the cells were dissolved, and then the CREB phosphorylation and MITF expression, which are signaling molecules involved in melanogenesis, were observed by western blot assay using antibodies specific thereto. The test was carried out using anti-pCREB antibody (Santa Cruz Biotechnology, USA) and anti-MITF antibody (Santa Cruz Biotechnology, USA).

TRP1 = experiment: Melanogenic enzyme gene level by RT-PCR: TRP1; type: cell-based, mouse; settings: B16F10 cells, 6-hour treatment and 24-hour treatment
Procedure: (§4) Melanocytes (B16F10 cell line) were incubated on 6-well culture plates in an incubator for 24 hours, and were treated with the peptides of the present invention with different concentrations. After the incubation for hours, the cells were taken off, and then, the increases in the expressions of tyrosinase and TRP1, which are enzymes involved in melanogenesis, were observed by RT-PCR using primers specific thereto.
(§5) Target-specific primer sequences used in PCR for enzymes involved in melanogenesis were as follows: Tyrosinase forward primer sequence, 5′-[…]-3′ and tyrosinase reverse primer sequence, 5′-[…]-3′ (annealing temperature, 51° C.); TRP1 forward primer sequence, 5′-[…]-3′ and TRP1 reverse primer sequence, 5′-[…]-3′ (annealing temperature, 60° C.)

[3] = tested on: Pre-adipocytes (3T3-L1 cell line); experiment: Measurement of triglyceride amount in differentiating pre-adipocytes; type: cell-based; settings: 3T3-L1 cells with differentiation inducing material, incubation for 7 days, absorbance 540 nm
Procedure: Pre-adipocytes (3T3-L1 cell line) were incubated on 24-well plates for 48 hours, and then treated with the peptide of the present invention with different concentrations together with a differentiation composition (0.5 mM IBMX, […], […]), followed by incubation for 7 days. The cells were taken off, and then put in a dissolution buffer (50 mM Tris, 150 mM NaCl, 1% Triton X-100, proteolytic enzyme inhibitor), and kept in ice for 30 minutes. After centrifugation at 14,000 g for 10 minutes, the supernatant containing an oil layer was collected, and a triglyceride reagent was added thereto, followed by reaction in an incubator at 37° C. for 5 minutes. The absorbance was measured at 540 nm to determine the amount of triglycerides.

tyrosinase [4] = experiment: Melanogenic enzyme gene level by RT-PCR: tyrosinase; type: cell-based, mouse; settings: B16F10 cells, 6-hour treatment and 24-hour treatment
Procedure: as §4, §5

MITF = experiment: Melanogenesis signaling molecules by western blot: MITF; type: cell-based, mouse; settings: B16F10 cells, observed over time (6 to 24 hours)
Procedure: as §3, with “[…],” for “and then the CREB phosphorylation and MITF expression,”

## CC(C)CC(N(C)C)C1(c2ccc(Cl)cc2)CCC1 (stereo not shown) [Reductil]
[1]
  side effects: cardiovascular diseases, such as stroke and myocardial infarction
  weight loss effect: 5-10%

## CCCCCCCCCCC[C@@H](C[C@@H]1OC(=O)[C@H]1CCCCCC)OC(=O)[C@H](CC(C)C)NC=O [Xenical]
[1]
  side effects: frequent diarrhea
  weight loss effect: 2-3%

## Cn1c(=O)c2[nH]cnc2n(C)c1=O [aminophylline]
[1]; background statement on anti-obesity drugs
  effect of reducing body fat: excellent effect of reducing body fat
[1]
  side effects: broad side effects throughout the mental nervous system, circulatory system, and digestive system

## NH2-Gln-Cys-Arg-Phe-Phe-Arg-Ser-Ala-Cys-COOH (H-QCRFFRSAC-OH; cysteine pairing not given here) [SEQ ID NO: 1]
perilipin
  gene expression of perilipin: reduced compared with a control
Tyrosinase [2]
  expression of tyrosinase protein: increased compared with a control
PPARγ
  gene expression of PPARγ: reduced compared with a control
CREB
  phosphorylation level of CREB: increased
TRP1
  expression of TRP1 gene: increased compared with a control
[3]
  level of triglycerides accumulated in cells: reduced in a concentration-dependent manner
Tyrosinase [4]
  expression of tyrosinase gene: increased compared with a control
MITF
  MITF protein expression level: increased

## NH2-Tyr-Cys-Arg-Phe-Phe-Asn-Ala-Phe-Cys-COOH (H-YCRFFNAFC-OH; disulfide 2-9 (inferred)) [SEQ ID NO: 2]
perilipin
  gene expression of perilipin: reduced compared with a control
Tyrosinase [2]
  expression of tyrosinase protein: increased compared with a control
PPARγ
  gene expression of PPARγ: reduced compared with a control
CREB
  phosphorylation level of CREB: increased
TRP1
  expression of TRP1 gene: increased compared with a control
[3]
  level of triglycerides accumulated in cells: reduced in a concentration-dependent manner
Tyrosinase [4]
  expression of tyrosinase gene: increased compared with a control
MITF
  MITF protein expression level: increased
